# What was measured:
# AGS = assay: Antiproliferation assay (Alamar Blue), AGS; assay type: cell-based; settings: Homo sapiens, stomach cancer, read-out: EC50 of YL001
# Description: (§1) Cytotoxic activities of the compounds of interest were investigated with human cancer cell lines using the Alamar Blue assay. Cells (5 × 10^3 cells/well) were seeded into 96-well plates (Corning, 3603). Various sample concentrations (compounds of interest) were added to each well in duplicate, and incubated at 37°C with 5% CO2 for two days such that cells were in the exponential growth phase at the time of drug addition. Ten microliters of the Alamar Blue Solution (Invitrogen, Alamar Blue) were added to each well and incubated at 37°C for up to 2 hours in a humidified, 5% CO2 atmosphere. After incubation, florescence was measured using a microplate reader (Tecan) at an excitation wavelength of 540 nm and emission of 590 nm. Each inhibitory concentration was measured in triplicate, and averaged data points ± SD are shown. Statistical analysis was carried out with GraphPad Prism 5 and the fifty-percent effective concentration is expressed as EC50.
# Huh7 = assay: Antiproliferation assay (Alamar Blue), Huh7; assay type: cell-based; settings: Homo sapiens, Huh-7; Huh7, liver cancer; read-out: EC50 of YL001
# Description: as §1
# B16 = assay: Antiproliferation assay (Alamar Blue), B16; assay type: cell-based; settings: B16, mouse melanoma; read-out: EC50 of YL001
# HCT 116 = assay: Cell cycle analysis by flow cytometry; assay type: cell-based, Human; settings: HCT 116, 8 hours treatment with 50 μM
# U87 = assay: Antiproliferation assay (Alamar Blue), U87; assay type: cell-based; settings: Homo sapiens, U-87 MG; U87, brain cancer; read-out: EC50 of YL001
# Description: as §1
# DU145 = assay: Antiproliferation assay (Alamar Blue), DU145; assay type: cell-based; settings: Homo sapiens, DU-145; DU145, prostate cancer; read-out: EC50 of YL001
# Description: as §1
# MCF10A = assay: Antiproliferation assay, normal breast cell line MCF10A; assay type: cell-based
# Description: as §1
# HeLa = assay: Antiproliferation assay (Alamar Blue), HeLa; assay type: cell-based; settings: Homo sapiens, 48 h, HeLa cell line, two days
# Description: as §1
# HCT116 = assay: Antiproliferation assay (Alamar Blue), HCT116; assay type: cell-based; settings: Homo sapiens, HCT-116; HCT116, colon cancer; read-out: EC50 of YL001
# Description: as §1
# [1] = Nucleophilic addition assay; settings: incubated with cysteine and lysine for 24 hours at 37°C
# Description: 0.5 mmol YL001 was solved in a solution of THF/H2O (v:v = 1:1) and stirred with nucleophiles (0.5 mmol L-cysteine or L-lysine) at 37°C for 24 hours. Products were then validated by HRMS.
# [2] = test system: panel of 468 typical, atypical and mutant human kinases; assay: Kinase profiling (KINOMEscan, DiscoverX); assay type: binding; settings: 468 kinases, 1 μM
# Description: Kinase profiling was conducted by the DiscoverX as KINOMEscan profiling service for testing the inhibition of YL001 of interest against 468 kinases. Selectivity score S(35) was defined as follows:
# S(35) = (number of non-mutant kinases with% Control < 35)/(number of non-mutant kinases tested).
# Eg5 motor domain = target: T1, Eg5 motor domain (Homo sapiens, UniProt P52732); assay: SPR assay (Biacore T200); assay type: binding; settings: SPR Biacore T200, 25°C
# T1 sequence (P52732 18-359 limits assumed): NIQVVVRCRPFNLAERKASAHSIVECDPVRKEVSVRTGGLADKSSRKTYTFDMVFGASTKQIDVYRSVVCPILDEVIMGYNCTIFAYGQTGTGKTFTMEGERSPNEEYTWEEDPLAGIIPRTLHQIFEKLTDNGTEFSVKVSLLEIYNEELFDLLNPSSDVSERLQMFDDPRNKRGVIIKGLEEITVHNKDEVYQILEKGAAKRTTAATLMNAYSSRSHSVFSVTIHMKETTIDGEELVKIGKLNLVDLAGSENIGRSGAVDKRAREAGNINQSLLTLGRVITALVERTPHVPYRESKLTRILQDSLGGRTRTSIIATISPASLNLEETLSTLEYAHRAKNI
# Description: Interactions of the Eg5 motor domain and compounds of interest were analyzed using the Biacore T200 system (GE Healthcare, Uppsala, Sweden) at 25°C. Eg5 motor protein obtained as previously described (51) was immobilized on a sensor chip (CM5) using an amine coupling kit (GE Healthcare, Buckinghamshire, UK). […] For binding studies, analytes were applied at corresponding concentrations in running buffer at a flow rate of 30 μL/minute with a contact time of 60 seconds and a dissociation time of 60 seconds. Chip platforms were washed with running buffer and 50% DMSO. Data were analyzed with Biacore evaluation software (T200 Version 1.0) by curve fitting using a steady state 1:1 binding model and a kinetic model.
smiles,measurement,setting,value
"Cc1ccc(-n2nnnc2/C(=C/N(C)C)C(=O)c2cccc(C(F)(F)F)c2)cc1 [YL001, (Z)-3-(dimethylamino)-2-(1-(p-tolyl)-1H-tetrazol-5-yl)-1-(3-(trifluoromethyl)phenyl)prop-2-en-1-one]",EC50,AGS,20.2 ± 0.01 µM
same,EC50,Huh7,14.6 ± 0.82 µM
same,EC50,B16,13.9 ± 5.03 µM
same,percentage of cells with 4N DNA content,HCT 116,over 80%
same,EC50,U87,26.2 ± 0.12 µM
same,EC50,DU145,26.5 ± 0.27 µM
same,Therapeutic window,MCF10A,> 6.7
same,EC50,"MCF10A; Homo sapiens, MCF-10A, MCF10A, breast normal cell, read-out: EC50 of YL001",> 100 µM
same,EC50,HeLa,14.3 ± 0.78 µM
same,EC50,HCT116,9.04 ± 2.19 µM
same,reaction with nucleophiles (new products by HRMS),[1],no new products were detected
same,activity against kinase panel,[2],no activity
same,Kd,Eg5 motor domain,0.133 µM

# Source: paper PMC5522084, “Eg5 inhibitor YL001 induces mitotic arrest and inhibits tumor proliferation” (Oncotarget, 2017)
